Assay results reported in US11684639B2, “Pharmaceutical composition for preventing and treating cell proliferative disease comprising mixture of feather of birds and scale of fish as an active ingredient” (priority 2007, dated 2023).

Test system: human colon cancer cells (HCT-15)
Assay: Anticancer effect in nude mice transplanted with human colon cancer cells (tumor volume)
Format: in vivo, BALB/C nude mice
Conditions: G2, 2 mg/kg abdominal, once in 2 days
Protocol: The anticancer effect of the inventive composition was tested at the Chemon Preclinical Research Center (approved by the KGLP) using a nude mouse transplanted with human colon cancer cells.
7-weeks-old specific pathogen free (SPF) athymic BALB/C nude mice (SLC Japan, Japan) were weighed and grouped to 6 groups, 10 per each group, as follows: negative control group (1), positive control group (1) and test groups (4). The mice were identified by the identification label of the cage and using ear punching.
The test groups were designed as in Table 1.
Colon cancer cells (HCT15) were thawed in a constant-temperature water bath of […] as soon as possible. After mixing well with 10 mL of RPMI1640 culture medium (Sigma Aldrich, USA), centrifuge was performed at 1000 rpm for 10 minutes. The resulting cell pellet was mixed well with 5 mL of RPMI1640 culture medium containing 10% fetal bovine serum (FBS), and the cells were cultured in a cell culture flask under the condition of 37° C. and 5% CO2. The cultured cancer cells were suspended in physiological saline to a concentration of 1×10^7 cells/mL and transplanted subcutaneously to the mice, 0.3 mL (3×10^6 cells) each.
The composition prepared in Example 1 was suspended at various concentrations in sterilized, distilled water for injection (Choongwae Pharma Corporation, Korea) as excipient, ground using a grinding machine (homogenizer), and orally administered to the mice at a dose of 75 mg/kg body weight (G3), 150 mg/kg body weight (G4) or 300 mg/kg body weight (G5), respectively, for 3 weeks, twice a day. Of the test groups, the pre-administration group (G6) had been orally administered with the composition at a dose of 300 mg/kg body weight for 3 weeks, twice a day, before the transplantation of the cancer cells. Following the transplantation of the cancer cells, they were administered in the same way for 3 weeks.
In the negative control group (G1), the excipient was orally administered for 3 weeks, twice a day, instead of the inventive anticancer composition. […] The doxorubicin solution was prepared by dissolving in the excipient by a method known in the art.
During the test, the mice were kept under the condition of 23±3° C. and relative humidity of 55±15%, and access to water and feed was allowed freely.
Tumor volume was measured on days 12, 15, 19 and 22 after the inoculation of the cancer cells. Length, width and height of the tumor were measured using a vernier caliper, and the tumor volume was calculated by the following equation: Tumor volume=(Length×Width×Height)÷2 The tumor volume measurement result is given in Table 2 (unit: mm^3).

Q: Which Tumor volume (Day 12) does the source give for `COc1cccc2c1C(=O)c1c(O)c3c(c(O)c1C2=O)C[C@@](O)(C(=O)CO)C[C@@H]3O[C@H]1C[C@H](N)[C@H](O)[C@H](C)O1` [doxorubicin] here?
A: 29.3 ± 16.0 mm^3

Q: And the Tumor volume (Day 15)?
A: 93.7 ± 65.9 mm^3

Q: And the Tumor volume (Day 19)?
A: 149.0 ± 77.6 mm^3

Q: What about the Tumor volume (Day 22) of the same compound?
A: 258.6 ± 160.1 mm^3

Q: And the “tumor inhibition effect ([1-(tumor volume of administered group/tumor volume of negative control group)]x100)” value (day 22)?
A: 59.5%
